The record followed here is ChEMBL document CHEMBL1221363, “Cytotoxicity of new pyrazino[1,2-b]isoquinoline and 6,15-iminoisoquino[3,2-b]3-benzazocine compounds” (2010).

Type in all cases: functional
Experiment [1] deals with HT-29. The experiment is described as follows: Cytotoxicity against human HT-29 cells after 48 hrs by SRB assay. The following applies: HT-29, 48 h. (In general: The SRB assay estimates cell density from bound dye.)
The test system of experiment [2] is A549. The experiment is described as follows: Cytotoxicity against human A549 cells after 48 hrs by SRB assay. The following applies: A549, 48 h.
Experiment [3] concerns MDA-MB-231. Kind of experiment: Cytotoxicity against human MDA-MB-231 cells after 48 hrs by SRB assay. To be noted: MDA-MB-231, 48 h; for CC50: read-out: LC50 (the source's name).

In experiment [1], `COc1c(C)c(OC)c(OC)c2c1C[C@H]1N[C@@H]2[C@@H]2Cc3c(OC)c(C)c(OC)c(OC)c3[C@H](COC(=O)c3cccc4ccccc34)N2C1=O` came in with a GI50 of 6.67 µM, an LC50 of over 18 µM and a TGI of over 18 µM. In experiment [2], this molecule returned a GI50 of 7.32 µM, an LC50 (concentration causing 50% net cell kill) of over 14.6 µM and a TGI of over 14.6 µM. In addition, in experiment [3], the GI50 was determined as 10.3 µM, the TGI is over 14.6 µM and the CC50 is over 14.6 µM.
As to `COc1c(C)c(OC)c(OC)c2c1C[C@H]1[C@@H]3N[C@@H](Cc4ccccc43)C(=O)N1[C@H]2COC(=O)c1cccc2ccccc12` (relative stereo), in experiment [1], the GI50 is over 18.9 µM, the LC50 was over 18.9 µM and the TGI is over 18.9 µM. Further, in experiment [2], the GI50 was 13.3 µM, the LC50 (concentration causing 50% net cell kill) was over 17.3 µM and the TGI is over 17.3 µM. In addition, in experiment [3], growth was halved (GI50) at 8.64 µM, the TGI is over 17.3 µM and the CC50 is over 17.3 µM.
For the molecule `COc1ccc(C[C@H]2C(=O)N3[C@@H](COCc4ccccc4)c4c(c(OC)c(C)c(OC)c4OC)C[C@H]3[C@@H](OC)N2C(=O)OC(C)C)cc1OC`, in experiment [1], the GI50 came to 12.3 µM, the median lethal concentration (LC50) was over 15.8 µM and the TGI is over 15.8 µM. In experiment [2], the GI50 came to 6.21 µM, the LC50 (concentration causing 50% net cell kill) was over 14.4 µM and the TGI was over 14.4 µM. In experiment [3], the GI50 turned out to be 9.53 µM, the TGI was over 14.4 µM and the CC50 was over 14.4 µM.
In experiment [1], `COc1c(C)c(OC)c(OC)c2c1C[C@H]1[C@H]3c4ccccc4C[C@@H]([C@H](C#N)N1[C@H]2CO)N3C` (relative stereo) had a GI50 of 5.17 µM, an LC50 of over 14.4 µM and a TGI of over 14.4 µM. Also, in experiment [2], the GI50 stood at 5.78 µM, the LC50 (concentration causing 50% net cell kill) was 18.7 µM and total growth inhibition (TGI) required 12 µM. Moreover, in experiment [3], the GI50 is 7.65 µM, the TGI was determined as 12.9 µM and the CC50 amounted to 18.7 µM.
In experiment [1], `COc1c(C)c(OC)c(OC)c2c1C[C@H]1[C@@H]3N[C@@H](Cc4ccccc43)C(=O)N1[C@H]2COC(=O)/C=C/c1ccccc1` (relative stereo) returned a GI50 of 6.22 µM, an LC50 of over 17.3 µM and a TGI of over 17.3 µM. Also, in experiment [2], it took 1.05 µM to inhibit growth by half (GI50), the LC50 (concentration causing 50% net cell kill) was over 18 µM and the TGI is over 18 µM. In addition, in experiment [3], it took 15 µM to inhibit growth by half (GI50), the TGI was over 18 µM and the CC50 is over 18 µM.
Regarding `COc1cc2c(cc1O)CCN[C@]21CS[C@@H]2c3c(OC(C)=O)c(C)c4c(c3[C@H](COC1=O)N1[C@@H]2[C@H]2c3c(cc(C)c(OC)c3O)C[C@@H]([C@@H]1O)N2C)OCO4` [TRABECTEDIN], in experiment [1], growth was halved (GI50) at 2.47 µM and the TGI came to 2.93 µM. In addition, in experiment [2], the GI50 is 0.00281 µM and the TGI came to 0.00315 µM. In addition, in experiment [3], the GI50 is 0.000396 µM, total growth inhibition (TGI) required 0.00101 µM and the CC50 was 0.0017 µM.
Regarding `COc1c(C)c(OC)c(OC)c2c1C[C@H]1[C@H]3c4ccccc4C[C@@H](C(=O)N1[C@H]2CO)N3C(=O)OC(C)C`, in experiment [1], the GI50 worked out at 14 µM, the LC50 is over 16.6 µM and the TGI was over 16.6 µM. Further, in experiment [2], the GI50 was over 19.6 µM, the LC50 (concentration causing 50% net cell kill) is over 19.6 µM and the TGI was over 19.6 µM. For the same molecule, in experiment [3], the GI50 turned out to be 17.6 µM, the TGI was over 19.6 µM and the CC50 was over 19.6 µM.
In experiment [1], `COc1c(C)c(OC)c(OC)c2c1C[C@H]1CN(C(=O)OC(C)(C)C)[C@@H](Cc3ccccc3)C(=O)N1[C@H]2COCc1ccccc1` came in with a GI50 of 9.13 µM, an LC50 of over 16.6 µM and a TGI of over 16.6 µM. In experiment [2], this molecule came in with a GI50 of 7.3 µM, an LC50 (concentration causing 50% net cell kill) of over 16.2 µM and a TGI of over 16.2 µM. Further, in experiment [3], the GI50 stood at 7.13 µM, the TGI was 10.5 µM and the CC50 is over 16.2 µM.
In the case of `COc1c(C)c(OC)c(OC)c2c1C[C@H]1CN(Cc3ccccc3)CC(=O)N1[C@H]2COCc1ccccc1` (relative stereo), in experiment [1], the GI50 came out at 12 µM, the LC50 was over 21.3 µM and the TGI was over 21.3 µM. Moreover, in experiment [2], it took 7.16 µM to inhibit growth by half (GI50), the LC50 (concentration causing 50% net cell kill) is over 19.4 µM and the TGI came out at 16.1 µM. For the same molecule, in experiment [3], the GI50 came to 11.2 µM, the TGI was over 19.4 µM and the CC50 is over 19.4 µM.
For the molecule `COc1ccc(C[C@H]2C(=O)N3[C@@H](COCc4ccccc4)c4c(c(OC)c(C)c(OC)c4OC)C[C@H]3[C@@H](OC)N2C(=O)OC(C)(C)C)cc1OC`, in experiment [1], halving of growth (GI50) required 9.38 µM, the LC50 is over 14.4 µM and the TGI is over 14.4 µM. In experiment [2], this molecule showed a GI50 of 9.2 µM, an LC50 (concentration causing 50% net cell kill) of over 14.1 µM and a TGI of over 14.1 µM. Besides, in experiment [3], the GI50 is over 14.1 µM, the TGI was over 14.1 µM and the CC50 is over 14.1 µM.
For `COc1c(C)c(OC)c(OC)c2c1C[C@H]1CN(Cc3ccc4ccccc4c3[N+](=O)[O-])CC(=O)N1[C@H]2COCc1ccccc1` (relative stereo), in experiment [1], it took 4.06 µM to inhibit growth by half (GI50), the LC50 was found to be 17.8 µM and net growth stopped (TGI) at 9.48 µM. In experiment [2], this molecule displayed a GI50 of over 16.3 µM, an LC50 (concentration causing 50% net cell kill) of over 16.3 µM and a TGI of over 16.3 µM. Besides, in experiment [3], growth was halved (GI50) at 8.01 µM, the TGI is over 16.3 µM and the CC50 is over 16.3 µM.
In experiment [1], `COc1c(C)c(OC)c(OC)c2c1C[C@H]1[C@@H](OC)N(C(=O)OC(C)C)CC(=O)N1[C@H]2COCc1ccccc1` gave a GI50 of 0.195 µM, an LC50 of 0.527 µM and a concentration for total growth inhibition (TGI) of 0.273 µM. In experiment [2], this molecule came in with a GI50 of 11.2 µM, an LC50 (concentration causing 50% net cell kill) of over 18.4 µM and a TGI of over 18.4 µM. Moreover, in experiment [3], it took 12.3 µM to inhibit growth by half (GI50), the TGI is over 18.4 µM and the CC50 is over 18.4 µM.
On to `COc1c(C)c(OC)c(OC)c2c1C[C@H]1CN(C)[C@@H](Cc3ccccc3)C(=O)N1[C@H]2COCc1ccccc1`, for which, in experiment [1], the GI50 turned out to be 13 µM, the LC50 is over 16.2 µM and the TGI was over 16.2 µM. Besides, in experiment [2], growth was halved (GI50) at 12.2 µM, the LC50 (concentration causing 50% net cell kill) is over 18.8 µM and the TGI is over 18.8 µM. Besides, in experiment [3], the GI50 was over 18.8 µM, the TGI is over 18.8 µM and the CC50 was over 18.8 µM.
As to `COc1cc(C[C@H]2NC=C3Cc4c(OC)c(C)c(OC)c(OC)c4[C@H](COC(=O)/C=C/c4ccccc4)N3C2=O)c(OC)c(C)c1OC`, in experiment [1], the GI50 was 11.1 µM, the LC50 is over 14.6 µM and the TGI was over 14.6 µM. In experiment [2], this molecule registered a GI50 of 6.53 µM, an LC50 (concentration causing 50% net cell kill) of over 15.2 µM and a TGI of over 15.2 µM. For the same molecule, in experiment [3], growth was halved (GI50) at 10.6 µM, the TGI is over 15.2 µM and the CC50 was over 15.2 µM.
In the case of `COc1c(C)c(OC)c(OC)c2c1C[C@H]1CN(C(=O)OC(C)(C)C)CC(=O)N1[C@H]2COCc1ccccc1`, in experiment [1], it took 8.66 µM to inhibit growth by half (GI50), the LC50 was over 18.4 µM and the TGI was over 18.4 µM. In experiment [2], this molecule gave a GI50 of 8.82 µM, an LC50 (concentration causing 50% net cell kill) of over 19 µM and a TGI of over 19 µM. For the same molecule, in experiment [3], growth was halved (GI50) at 14.1 µM, the TGI was over 19 µM and the CC50 is over 19 µM.
In experiment [1], `COc1c(C)c(OC)c(OC)c2c1C[C@H]1[C@H]3c4ccccc4C[C@@H](C(=O)N1[C@H]2COCc1ccccc1)N3C(=O)OC(C)C` showed a GI50 of 12.3 µM, an LC50 of over 15.2 µM and a TGI of over 15.2 µM. In experiment [2], this molecule returned a GI50 of over 16.6 µM, an LC50 (concentration causing 50% net cell kill) of over 16.6 µM and a TGI of over 16.6 µM. For the same molecule, in experiment [3], the GI50 came to 8.32 µM, the TGI is over 16.6 µM and the CC50 was over 16.6 µM.
With `COc1c(C)c(OC)c(OC)c2c1C[C@@H]1N[C@H]2[C@@H]2Cc3c(OC)c(C)c(OC)c(OC)c3[C@H](CO)N2C1=O` (relative stereo), in experiment [1], the GI50 amounted to 12.3 µM, the LC50 is over 15.1 µM and the TGI is over 15.1 µM. Also, in experiment [2], the GI50 was over 18.9 µM, the LC50 (concentration causing 50% net cell kill) is over 18.9 µM and the TGI is over 18.9 µM. In experiment [3], the concentration for 50% growth inhibition (GI50) amounted to 16.1 µM, the TGI was over 18.9 µM and the CC50 was over 18.9 µM.

As a reminder, the GI50 is the concentration giving 50% growth inhibition. Higher therefore signals less potent growth inhibition. What is called LC50 is the concentration that kills 50% of the test population. A lower LC50 goes with greater toxicity. Usually TGI stands for the concentration giving total growth inhibition. A higher TGI goes with less potent growth arrest.
